Biological target: T1, human PF4 (Homo sapiens, UniProt P02776)
T1 construct: PF4 is a 70 amino acid, lysine-rich 7.8 kDa platelet-specific protein; made in house; host or cells: Escherichia coli BL21DE3 pLysS (pT7-7) and/or Drosophila S2 cells
T1 sequence (P02776 32-101): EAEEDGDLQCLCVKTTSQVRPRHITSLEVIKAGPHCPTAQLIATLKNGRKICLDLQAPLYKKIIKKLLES
Test: Inhibition of PF4 tetramer formation (BS3 cross-linking, SDS-PAGE)
Format: biochemical
Settings: for inhibition at 1 µM: 1 μM inhibitor; for inhibition at 3 µM: 3 μM inhibitor (column A); for IC50: read-out: IC50 of PF4 tetramer formation inhibition; for inhibition at 5 µM: 5 μM inhibitor; for inhibition at 10 µM: 10 μM inhibitor (column A)
Outline: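 Monomer, dimer, trimer and tetramer fractions were quantified by densitometry after reducing 12% SDS-PAGE of BS3-cross-linked (0.2 mM, 30 min, room temperature) PF4. Before cross-linking, 10 μg/ml E. coli-expressed human WT PF4 in PBS was exposed to compound for 15 min at 37° C or 60 min at room temperature; controls lacked compound.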

[1] = read-out: % inhibition of PF4 tetramer formation at single concentration of inhibitor

Structure (SMILES)	inhibition at 1 µM [1] [%]	inhibition at 3 µM [1] [%]	IC50 [µM]	inhibition at 5 µM [1] [%]	inhibition at 10 µM [1] [%]	further results
CS(=O)(=O)N1CCC(NC(=O)C2C(=O)c3ccc(Oc4ccc5c(c4)C(=O)C(C(=O)NC4CCN(S(C)(=O)=O)CC4)C5=O)cc3C2=O)CC1 (stereo not shown) [Example 369, N-(1-methanesulfonylpiperidin-4-yl)-5-({2-[(1-methanesulfonylpiperidin-4-yl)carbamoyl]-1,3-dioxo-2,3-dihydro-1H-inden-5-yl}oxy)-1,3-dioxo-2,3-dihydro-1H-indene-2-carboxamide]	1	21				
CCOCC(=O)C1C(=O)c2ccc(Oc3ccc4c(c3)C(=O)C(C(=O)COCC)C4=O)cc2C1=O (stereo not shown) [Example 247, 2-(2-ethoxyacetyl)-5-{[2-(2-ethoxyacetyl)-1,3-dioxo-2,3-dihydro-1H-inden-5-yl]oxy}-2,3-dihydro-1H-indene-1,3-dione]	19	27	3			
CN1CCC(C(=O)C2C(=O)c3ccc(C(=O)c4ccc5c(c4)C(=O)C(C(=O)C4CCN(C)CC4)C5=O)cc3C2=O)CC1 (stereo not shown) [Example 266, 2-(1-methylpiperidine-4-carbonyl)-5-[2-(1-methylpiperidine-4-carbonyl)-1,3-dioxo-2,3-dihydro-1H-indene-5-carbonyl]-2,3-dihydro-1H-indene-1,3-dione]		25				
O=C(O)CCC(=O)C1C(=O)c2ccc(Oc3ccc4c(c3)C(=O)C(C(=O)CCC(=O)O)C4=O)cc2C1=O (stereo not shown) [Example 245, 4-(5-{[2-(3-carboxypropanoyl)-1,3-dioxo-2,3-dihydro-1H-inden-5-yl]oxy}-1,3-dioxo-2,3-dihydro-1H-inden-2-yl)-4-oxobutanoic acid]	27	47				
Cc1ccccc1NC(=O)C1C(=O)c2ccc(C(=O)c3ccc4c(c3)C(=O)C(C(=O)Nc3ccccc3C)C4=O)cc2C1=O (stereo not shown) [Example 81, N-(2-methylphenyl)-5-{2-[(2-methylphenyl)carbamoyl]-1,3-dioxo-2,3-dihydro-1H-indene-5-carbonyl}-1,3-dioxo-2,3-dihydro-1H-indene-2-carboxamide]			4.6			
O=C(c1ccc2c(c1)C(=O)C(C(=O)NC1CC1)C2=O)c1ccc2c(c1)C(=O)C(C(=O)NC1CC1)C2=O (stereo not shown) [Example 21, 5,5′-carbonylbis(1,3-dioxo-indan-2-carboxylic acid (cyclopropyl)-amide)]				27	46	
O=C(NCc1ccco1)C1C(=O)c2ccc(S(=O)(=O)c3ccc4c(c3)C(=O)C(C(=O)NCc3ccco3)C4=O)cc2C1=O (stereo not shown) [Example 104, N-[(furan-2-yl)methyl]-5-[(2-{[(furan-2-yl)methyl]carbamoyl}-1,3-dioxo-2,3-dihydro-1H-inden-5-yl)sulfonyl]-1,3-dioxo-2,3-dihydro-1H-indene-2-carboxamide]			1.4			
O=C(c1ccc2c(c1)C(=O)C(C(=O)NCC1CC1)C2=O)c1ccc2c(c1)C(=O)C(C(=O)NCC1CC1)C2=O (stereo not shown) [Example 76, N-(cyclopropylmethyl)-5-{2-[(cyclopropylmethyl)carbamoyl]-1,3-dioxo-2,3-dihydro-1H-indene-5-carbonyl}-1,3-dioxo-2,3-dihydro-1H-indene-2-carboxamide]			2.1			
N[C@@H](C(=O)C1C(=O)c2ccc(S(=O)(=O)c3ccc4c(c3)C(=O)C(C(=O)[C@H](N)c3ccccc3)C4=O)cc2C1=O)c1ccccc1 (stereo partly drawn) [Example 172, 2-[(2R)-2-amino-2-phenylacetyl]-5-({2-[(2R)-2-amino-2-phenylacetyl]-1,3-dioxo-2,3-dihydro-1H-inden-5-yl}sulfonyl)-2,3-dihydro-1H-indene-1,3-dione]			1.6	81	93	
CSCC(=O)C1C(=O)c2ccc(S(=O)(=O)c3ccc4c(c3)C(=O)C(C(=O)CSC)C4=O)cc2C1=O (stereo not shown) [Example 282, 2-[2-(methylsulfanyl)acetyl]-5-({2-[2-(methylsulfanyl)acetyl]-1,3-dioxo-2,3-dihydro-1H-inden-5-yl}sulfonyl)-2,3-dihydro-1H-indene-1,3-dione]	29	45	3			
COCCOCCN(CC(=O)C1C(=O)c2ccc(Oc3ccc4c(c3)C(=O)C(C(=O)CN(CCOCCOC)C(=O)OC(C)(C)C)C4=O)cc2C1=O)C(=O)OC(C)(C)C (stereo not shown) [Example 390, tert-butyl N-{2-[5-({2-[2-(11,11-dimethyl-9-oxo-2,5,10-trioxa-8-azadodecan-8-yl)acetyl]-1,3-dioxo-2,3-dihydro-1H-inden-5-yl}oxy)-1,3-dioxo-2,3-dihydro-1H-inden-2-yl]-2-oxoethyl}-N-[2-(2-methoxyethoxy)ethyl]carbamate]	27	31				
CCCCNC(=O)C1C(=O)c2ccc(C(=O)c3ccc4c(c3)C(=O)C(C(=O)NCCCC)C4=O)cc2C1=O (stereo not shown) [Example 77, N-butyl-5-[2-(butylcarbamoyl)-1,3-dioxo-2,3-dihydro-1H-indene-5-carbonyl]-1,3-dioxo-2,3-dihydro-1H-indene-2-carboxamide]			2.3			
CSCCCC(=O)C1C(=O)c2ccc(S(=O)(=O)c3ccc4c(c3)C(=O)C(C(=O)CCCSC)C4=O)cc2C1=O (stereo not shown) [Example 285, 2-[4-(methylsulfanyl)butanoyl]-5-({2-[4-(methylsulfanyl)butanoyl]-1,3-dioxo-2,3-dihydro-1H-inden-5-yl}sulfonyl)-2,3-dihydro-1H-indene-1,3-dione]	33	49	3			
O=C(c1ccc2c(c1)C(=O)C(C(=O)NCCCc1ccccc1)C2=O)c1ccc2c(c1)C(=O)C(C(=O)NCCCc1ccccc1)C2=O (stereo not shown) [Example 24, 5,5′-carbonylbis(1,3-dioxo-indan-2-carboxylic acid (3-(phenyl)propyl)-amide)]			5.11	83	89	
CC(C)(C)OC(=O)N1CC=C[C@H]1C(=O)C1C(=O)c2ccc(C(=O)c3ccc4c(c3)C(=O)C(C(=O)[C@@H]3C=CCN3C(=O)OC(C)(C)C)C4=O)cc2C1=O (stereo partly drawn) [Example 122, tert-butyl (2S)-2-(5-{2-[(2S)-1-[(tert-butoxy)carbonyl]-2,5-dihydro-1H-pyrrole-2-carbonyl]-1,3-dioxo-2,3-dihydro-1H-indene-5-carbonyl}-1,3-dioxo-2,3-dihydro-1H-indene-2-carbonyl)-2,5-dihydro-1H-pyrrole-1-carboxylate]			~3			
CC[C@H](NC(=O)OCc1ccccc1)C(=O)C1C(=O)c2ccc(S(=O)(=O)c3ccc4c(c3)C(=O)C(C(=O)[C@H](CC)NC(=O)OCc3ccccc3)C4=O)cc2C1=O (stereo partly shown) [Example 166]			3.4	59	84	
CCOC(=O)CC(=O)C1C(=O)c2ccc(S(=O)(=O)c3ccc4c(c3)C(=O)C(C(=O)CC(=O)OCC)C4=O)cc2C1=O (stereo not shown) [Example 403, ethyl 3-(5-{[2-(3-ethoxy-3-oxopropanoyl)-1,3-dioxo-2,3-dihydro-1H-inden-5-yl]sulfonyl}-1,3-dioxo-2,3-dihydro-1H-inden-2-yl)-3-oxopropanoate]	22	23				
O=C(c1ccc2c(c1)C(=O)C(C(=O)Nc1ccccc1)C2=O)c1ccc2c(c1)C(=O)C(C(=O)Nc1ccccc1)C2=O (stereo not shown) [Example 14, 5,5′-carbonylbis(1,3-dioxo-indan-2-carboxylic acid phenylamide)]			1			inhibition at 30 µM (30 μM inhibitor, read-out: % inhibition of PF4 tetramer formation at single concentration of inhibitor): 96%
CCNC(=O)C1C(=O)c2ccc(C(=O)c3ccc4c(c3)C(=O)C(C(=O)NCC)C4=O)cc2C1=O (stereo not shown) [Example 335, N-ethyl-5-[2-(ethylcarbamoyl)-1,3-dioxo-2,3-dihydro-1H-indene-5-carbonyl]-1,3-dioxo-2,3-dihydro-1H-indene-2-carboxamide]	23	39				
C=CCNC(=O)C1C(=O)c2ccc(C(=O)c3ccc4c(c3)C(=O)C(C(=O)NCC=C)C4=O)cc2C1=O (stereo not shown) [Example 65, 5,5′-carbonylbis(n-allyl-1,3-dioxo-2,3-dihydro-1h-indene-2-carboxamide)]				50	71	
O=C(NC1CCOCC1)C1C(=O)c2ccc(S(=O)(=O)c3ccc4c(c3)C(=O)C(C(=O)NC3CCOCC3)C4=O)cc2C1=O (stereo not shown) [Example 368, N-(oxan-4-yl)-5-({2-[(oxan-4-yl)carbamoyl]-1,3-dioxo-2,3-dihydro-1H-inden-5-yl}sulfonyl)-1,3-dioxo-2,3-dihydro-1H-indene-2-carboxamide]	1	45				
CC(C)CCCC(=O)C1C(=O)c2ccc(S(=O)(=O)c3ccc4c(c3)C(=O)C(C(=O)CCCC(C)C)C4=O)cc2C1=O (stereo not shown) [Example 171, 2-(5-methylhexanoyl)-5-{[2-(5-methylhexanoyl)-1,3-dioxo-2,3-dihydro-1H-inden-5-yl]sulfonyl}-2,3-dihydro-1H-indene-1,3-dione]				62	75	
O=C(c1ccc2c(c1)C(=O)C(C(=O)[C@@H]1CCN1)C2=O)c1ccc2c(c1)C(=O)C(C(=O)[C@@H]1CCN1)C2=O (stereo partly drawn) [Example 116, 2-[(2S)-azetidine-2-carbonyl]-5-{2-[(2S)-azetidine-2-carbonyl]-1,3-dioxo-2,3-dihydro-1H-indene-5-carbonyl}-2,3-dihydro-1H-indene-1,3-dione]				13	21	

— patent publication US20250281424A1 (New York Blood Center, Inc, priority 2020, published 2025)
